Measured values as given in publication PMC9486808 (ACS Chemical Biology, 2022).
Entries after “also recorded” stand apart in the source; their conditions may differ. Positions of bridges follow the written chain, without caps; N, C: chain ends. Non-standard residues stand in square brackets, D forms with d. Residues, ends and D or L forms follow the SMILES beside them.

Columns and labels:
Format in all cases: cell-based, Influenza A virus A/California/04/2009 (H1N1)
[1] = molecular target: full length, membrane-bound H1 HA (Influenza A virus, UniProt C3W5S1)
full-length H1 HA I375F = full-length H1 HA I375F (Influenza A virus, UniProt C3W5S1, I389F)
full-length H1 HA I463V = full-length H1 HA I463V (Influenza A virus, UniProt C3W5S1, I477V)

SMILES: CC(C)C[C@@H]1NC(=O)[C@H](C(C)C)NC(=O)[C@@H](Cc2ccc(O)cc2)NC(=O)CSC[C@@H](C(=O)NCC(N)=O)NC(=O)[C@H](C(C)C)NC(=O)[C@H](Cc2c[nH]c3ccccc23)NC(=O)[C@H](Cc2c[nH]cn2)NC(=O)[C@H]([C@@H](C)O)NC(=O)[C@H](C)NC(=O)[C@H](CC(C)C)NC(=O)[C@H]([C@@H](C)O)NC(=O)CNC(=O)[C@H](Cc2c[nH]cn2)NC(=O)[C@H](CC(=O)O)NC(=O)[C@H](Cc2c[nH]c3ccccc23)NC(=O)[C@H](CCCNC(=N)N)NC(=O)[C@H](Cc2ccccc2)NC1=O [S5] ({CH2CO}-[dY]VLFRWDHGTLATHWVCG-NH2; thioether N-17)
- Competition with mAb Fi6 staining [1]: strongly decreased the staining; also recorded: competed with the binding of mAb Fi6
- Binding of biotinylated S5 to cell-surface H1 (full-length H1 HA I375F): hinders binding; also recorded: affected by the I375F substitution
- Binding of biotinylated S5 to cell-surface H1 (full-length H1 HA I463V): not by the I463V substitution
